pIC50: −log10 of the molar value.
Tests used:
EP3 receptor = target: T1, EP3 receptor (Homo sapiens, UniProt P43115); experiment: Prostanoid receptor antagonism (FLIPR), EP3; assay type: cell-based; details: Table 2
T1 sequence (P43115 1-390): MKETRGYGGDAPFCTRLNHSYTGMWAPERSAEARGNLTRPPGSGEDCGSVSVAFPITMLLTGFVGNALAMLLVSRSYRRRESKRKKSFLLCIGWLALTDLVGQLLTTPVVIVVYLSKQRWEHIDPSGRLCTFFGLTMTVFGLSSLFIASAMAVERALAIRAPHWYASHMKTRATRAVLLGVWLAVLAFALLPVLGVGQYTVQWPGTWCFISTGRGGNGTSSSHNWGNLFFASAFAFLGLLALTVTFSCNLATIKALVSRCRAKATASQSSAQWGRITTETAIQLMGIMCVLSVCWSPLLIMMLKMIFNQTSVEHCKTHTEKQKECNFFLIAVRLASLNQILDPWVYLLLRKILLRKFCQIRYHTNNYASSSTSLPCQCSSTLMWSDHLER

EP4 receptor = EP4 receptor (Homo sapiens, UniProt P35408); experiment: Prostanoid receptor antagonism (FLIPR), EP4; assay type: cell-based; details: Table 2
IP receptor = IP receptor (Homo sapiens, UniProt P43119); experiment: Prostanoid receptor antagonism (FLIPR), IP; assay type: cell-based; details: Table 2, NA = inactive
EP2 receptor = EP2 receptor (Homo sapiens, UniProt P43116); experiment: Prostanoid receptor antagonism (FLIPR), EP2; assay type: cell-based; details: Table 2, NA = inactive
DP receptor = target: T2, DP receptor (Homo sapiens, UniProt Q13258); experiment: Prostanoid receptor antagonism (FLIPR), DP; assay type: cell-based; details: Table 2
T2 sequence (Q13258 1-359): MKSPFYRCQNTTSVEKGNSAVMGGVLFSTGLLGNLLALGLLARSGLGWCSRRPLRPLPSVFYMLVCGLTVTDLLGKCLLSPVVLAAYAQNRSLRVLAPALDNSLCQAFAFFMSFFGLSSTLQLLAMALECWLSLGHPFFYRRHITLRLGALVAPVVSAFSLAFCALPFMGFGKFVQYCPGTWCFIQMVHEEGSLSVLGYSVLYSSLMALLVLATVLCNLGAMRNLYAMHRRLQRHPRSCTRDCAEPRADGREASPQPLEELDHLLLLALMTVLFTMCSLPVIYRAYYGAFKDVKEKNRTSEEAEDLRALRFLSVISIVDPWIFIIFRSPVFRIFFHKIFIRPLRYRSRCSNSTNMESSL

FAAH Rat brain = target: T3, FAAH Rat brain (Rattus norvegicus, UniProt P97612); experiment: FAAH inhibitory activity, rat brain membranes, [14C]-AEA hydrolysis; assay type: biochemical; details: Table 2; rat brain; read-out: FAAH Rat brain IC50
T3 construct: from tissue; host or cells: rat brain membranes
T3 sequence (P97612 1-579): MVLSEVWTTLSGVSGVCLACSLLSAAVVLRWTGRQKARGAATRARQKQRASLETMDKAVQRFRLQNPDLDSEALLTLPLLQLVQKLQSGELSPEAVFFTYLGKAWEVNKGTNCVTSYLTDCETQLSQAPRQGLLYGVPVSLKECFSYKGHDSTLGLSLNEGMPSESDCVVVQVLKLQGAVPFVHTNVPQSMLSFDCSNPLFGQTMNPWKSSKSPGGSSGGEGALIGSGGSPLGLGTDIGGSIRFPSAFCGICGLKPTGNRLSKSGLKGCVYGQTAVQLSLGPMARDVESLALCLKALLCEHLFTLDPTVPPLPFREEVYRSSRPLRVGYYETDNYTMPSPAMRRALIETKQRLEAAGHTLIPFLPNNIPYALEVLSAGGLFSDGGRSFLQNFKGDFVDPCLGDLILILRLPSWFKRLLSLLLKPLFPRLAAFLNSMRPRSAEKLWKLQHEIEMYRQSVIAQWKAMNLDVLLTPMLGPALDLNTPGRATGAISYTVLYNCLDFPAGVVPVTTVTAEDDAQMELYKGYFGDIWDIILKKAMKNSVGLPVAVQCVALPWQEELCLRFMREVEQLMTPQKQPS
Protocol: The compounds of Examples 12, and 19 are tested for FAAH inhibitory activity as follows:
Method 1: Membranes obtained from rat brain are incubated with 2 mM [^14C]-AEA, 30 min at 37° C. at pH values ranging from 9.00 to 10.00 in presence and absence of tested compounds in a final volume of […]. Incubation is stopped by extraction with CHCl3/MeOH (1:1) and the aqueous phases containing [^14C]-Ethanolamine produced by [^14C]-AEA hydrolysis are measured.

EP1 receptor = target: T4, EP1 receptor (Homo sapiens, UniProt P34995); experiment: Prostanoid receptor antagonism (FLIPR), EP1; assay type: cell-based; details: Table 2
T4 sequence (P34995 1-402): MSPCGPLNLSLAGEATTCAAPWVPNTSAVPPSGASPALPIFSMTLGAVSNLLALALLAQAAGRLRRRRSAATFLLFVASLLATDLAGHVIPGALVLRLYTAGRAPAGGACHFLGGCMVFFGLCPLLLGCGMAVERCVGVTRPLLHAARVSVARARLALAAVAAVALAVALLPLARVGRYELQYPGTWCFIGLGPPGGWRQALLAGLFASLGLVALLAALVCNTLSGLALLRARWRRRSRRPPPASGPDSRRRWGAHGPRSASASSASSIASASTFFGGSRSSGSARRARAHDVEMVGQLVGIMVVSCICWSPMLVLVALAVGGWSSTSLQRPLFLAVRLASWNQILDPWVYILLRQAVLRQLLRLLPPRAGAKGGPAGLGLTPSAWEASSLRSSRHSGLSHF

TP receptor = target: T5, TP receptor (Homo sapiens, UniProt P21731); experiment: Prostanoid receptor antagonism (FLIPR), TP; assay type: cell-based; details: Table 2
T5 sequence (P21731 1-343): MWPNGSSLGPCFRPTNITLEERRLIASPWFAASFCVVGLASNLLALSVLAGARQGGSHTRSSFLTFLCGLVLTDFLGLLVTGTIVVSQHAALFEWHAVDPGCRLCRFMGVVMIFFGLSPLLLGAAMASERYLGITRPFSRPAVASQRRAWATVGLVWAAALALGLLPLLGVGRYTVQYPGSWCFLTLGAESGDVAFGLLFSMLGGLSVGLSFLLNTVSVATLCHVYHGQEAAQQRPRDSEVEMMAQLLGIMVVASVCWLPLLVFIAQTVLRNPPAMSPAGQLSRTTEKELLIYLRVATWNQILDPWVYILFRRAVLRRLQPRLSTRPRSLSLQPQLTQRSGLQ

FP receptor = FP receptor (Homo sapiens, UniProt P43088); experiment: Prostanoid receptor antagonism (FLIPR), FP; assay type: cell-based; details: Table 2
Chain of FP receptor (P43088 whole entry): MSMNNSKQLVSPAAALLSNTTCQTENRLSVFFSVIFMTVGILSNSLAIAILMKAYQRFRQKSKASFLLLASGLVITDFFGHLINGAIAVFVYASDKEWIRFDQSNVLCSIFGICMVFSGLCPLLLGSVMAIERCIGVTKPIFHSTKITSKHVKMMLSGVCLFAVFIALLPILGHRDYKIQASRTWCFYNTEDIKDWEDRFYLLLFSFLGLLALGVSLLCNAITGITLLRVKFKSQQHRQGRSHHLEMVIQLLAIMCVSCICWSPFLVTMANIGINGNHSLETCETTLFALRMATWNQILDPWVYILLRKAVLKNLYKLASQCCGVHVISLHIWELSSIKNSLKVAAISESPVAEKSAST

Chain of EP2 receptor (P43116 whole entry): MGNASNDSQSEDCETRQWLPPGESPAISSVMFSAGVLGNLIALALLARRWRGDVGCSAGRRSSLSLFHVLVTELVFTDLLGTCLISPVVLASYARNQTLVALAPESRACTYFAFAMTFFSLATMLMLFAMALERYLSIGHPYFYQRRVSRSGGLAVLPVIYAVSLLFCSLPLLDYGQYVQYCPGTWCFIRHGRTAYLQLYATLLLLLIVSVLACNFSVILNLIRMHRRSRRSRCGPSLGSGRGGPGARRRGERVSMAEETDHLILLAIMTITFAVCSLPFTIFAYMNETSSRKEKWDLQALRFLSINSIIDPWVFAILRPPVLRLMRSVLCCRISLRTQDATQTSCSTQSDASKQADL
Chain of IP receptor (P43119 whole entry): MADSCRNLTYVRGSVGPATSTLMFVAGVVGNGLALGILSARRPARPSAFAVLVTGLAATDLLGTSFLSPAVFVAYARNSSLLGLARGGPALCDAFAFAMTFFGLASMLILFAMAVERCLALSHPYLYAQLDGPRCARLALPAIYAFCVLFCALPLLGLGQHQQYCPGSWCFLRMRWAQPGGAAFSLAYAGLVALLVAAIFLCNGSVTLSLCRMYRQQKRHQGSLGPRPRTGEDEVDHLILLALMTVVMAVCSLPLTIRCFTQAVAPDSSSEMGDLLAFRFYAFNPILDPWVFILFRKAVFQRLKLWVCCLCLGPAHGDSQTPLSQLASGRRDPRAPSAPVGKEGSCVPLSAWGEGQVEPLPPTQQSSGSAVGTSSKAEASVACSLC
Chain of EP4 receptor (P35408 whole entry): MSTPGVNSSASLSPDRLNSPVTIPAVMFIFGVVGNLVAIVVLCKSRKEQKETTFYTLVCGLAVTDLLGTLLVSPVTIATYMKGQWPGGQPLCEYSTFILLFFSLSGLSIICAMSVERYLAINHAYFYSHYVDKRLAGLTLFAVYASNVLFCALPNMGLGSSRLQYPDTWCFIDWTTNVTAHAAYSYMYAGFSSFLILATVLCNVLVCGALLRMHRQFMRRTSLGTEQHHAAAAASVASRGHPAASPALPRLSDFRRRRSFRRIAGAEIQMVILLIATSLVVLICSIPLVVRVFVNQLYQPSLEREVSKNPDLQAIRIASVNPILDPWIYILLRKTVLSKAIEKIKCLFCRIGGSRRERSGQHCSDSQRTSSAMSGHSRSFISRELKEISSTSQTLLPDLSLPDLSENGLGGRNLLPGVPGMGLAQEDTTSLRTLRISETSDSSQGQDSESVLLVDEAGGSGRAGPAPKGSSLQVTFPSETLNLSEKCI

Kb (EP3 receptor): 910 nM
Kb (EP4 receptor): 160 nM
Kb (IP receptor): 6900 nM
Kb (EP2 receptor): 1800 nM
Kb (DP receptor): 40 nM
pIC50 (FAAH Rat brain): 6.62
Kb (EP1 receptor): 180 nM
Kb (TP receptor): 11 nM
Kb (FP receptor): 1600 nM
Structure (SMILES): CCS(=O)(=O)NC(=O)CCc1ccc(OC)cc1CN1CCC[C@H]1c1nc(C(=O)NCCCCC2CCCCC2)co1 [Example 12l, (S)—N-(4-cyclohexylbutyl)-2-(1-(5-methoxy-2-(3-oxo-3-(ethylsulfonamido)propyl)benzyl)pyrrolidin-2-yl)oxazole-4-carboxamide]

Source: patent US20120270915A1, “FATTY ACID AMIDE HYDROLASE INHIHIBITORS FOR TREATING PAIN” (priority 2011, published 2012)
